In patent US4091097A, “Treatment of elevated histamine and uric acid levels” (Zaidan Hojin Biseibutsu Kagaku Kenkyu Kai, priority 1973, dated 1978):
Where two headings read alike, the source gives them in different places.

Columns and labels:
histidine decarboxylase [1] = target: T1, histidine decarboxylase (Rattus norvegicus, UniProt P16453); assay: Inhibition of Histidine Decarboxylase (14C-histamine formation); type: biochemical, fetal rats
T1 construct: a crude enzyme preparation obtained from fetal rats; from tissue
T1 sequence (P16453 1-656): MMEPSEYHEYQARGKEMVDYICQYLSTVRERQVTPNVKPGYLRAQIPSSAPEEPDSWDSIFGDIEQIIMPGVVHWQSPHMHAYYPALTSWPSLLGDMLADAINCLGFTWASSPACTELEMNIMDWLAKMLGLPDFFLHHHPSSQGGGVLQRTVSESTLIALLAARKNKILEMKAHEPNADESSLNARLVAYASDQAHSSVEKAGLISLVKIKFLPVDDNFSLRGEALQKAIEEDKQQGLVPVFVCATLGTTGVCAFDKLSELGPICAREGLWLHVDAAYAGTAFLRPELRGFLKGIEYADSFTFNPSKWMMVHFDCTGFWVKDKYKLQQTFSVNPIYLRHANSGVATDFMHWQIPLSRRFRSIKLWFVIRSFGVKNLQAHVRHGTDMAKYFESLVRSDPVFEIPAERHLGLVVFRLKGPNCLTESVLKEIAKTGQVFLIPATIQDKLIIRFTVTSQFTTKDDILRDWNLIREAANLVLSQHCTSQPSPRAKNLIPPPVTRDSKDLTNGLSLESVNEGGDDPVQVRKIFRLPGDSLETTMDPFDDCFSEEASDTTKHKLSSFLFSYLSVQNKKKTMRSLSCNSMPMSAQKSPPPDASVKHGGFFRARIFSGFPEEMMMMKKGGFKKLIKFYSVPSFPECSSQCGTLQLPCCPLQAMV
Description: After two hours of incubation at 37° C., the histamine 2-^14 C formed was collected on an ion exchange resin ("Amberlite" CG-50, ammonia type) from which, after washing with water, the histamine was liberated in 1N aqueous ammonia solution and radioactivity was measured.

[2] = system: acetic acid-induced stretching movements; assay: Analgesic Activity in mice (acetic acid stretching); type: in vivo, mice (DDY Strain); conditions: control (no drug) 53
Description: Male mice of the DDY Strain having mean body weight of 20 g. were divided to the groups of 10 animals each, to which compounds of this invention or aminopyrine in saline solution were administered intraperitoneally (i.p.). The dosage was 200, 50 or 12.5 mg./kg. Then 30 minutes later, 0.2 ml. per 20 g. body weight of 0.7% acetic acid in saline was injected intraperitoneally and the number of characteristic stretching movements counted for 20 minute period and compared with a control group receiving no analgesic.

[3] = system: pyrexia induced by TTG No. 2; assay: Antipyretic Activity in Pyrexia-Induced Rabbits; type: in vivo, Japanese rabbits; conditions: 200 mg./kg. oral
Description: Common white male Japanese rabbits, 2.0 - 3.0 kg. body weight, were injected through the ear vein with 20 μg./kg. of a pyrexia inducer TTG No. 2, purified polysaccharide preparation obtained from Pseudomonas aeruginosa (marketed by Fujisawa Pharmaceutical Company, Japan), and the body temperature was monitored with a rectal thermister-type thermometer. Three hours prior to the TTG injection four rabbits in each experimental section orally received the test drug in the dose of 200 mg./kg. One group received aspirin in a dose of 100 mg./kg and a control group no drug.

[4] = system: anaphylactic shock (egg albumin); assay: Effect on the Anaphylactic Shock in Mice; type: in vivo, mice (DDY Strain)
Description: DDY Strain mice were sensitized by subcutaneous injection of a mixture of 0.1 ml. (100 μg.) egg albumin (Nutritional Biochemical Corp. U.S.A., 5 times crystallized) and 0.1 ml. Freund's complete adjuvant (Difco Co., U.S.A.) in saline. The mice were used for the test 3 months thereafter. The sensitized animals were divided in 3 groups of 4 animals each, which were subcutaneously administered the test compound several times before antigen challenge to cause anaphylactic shock. Group 1 received 100 mg./kg. 19 hours before and 50 mg./kg. 9, 4 and 1 hour before challenge. Group 2 received 100 mg./kg. 9 hours before and 50 mg./kg. 4 and 1 hour before challenge. Group 3 was a control group and received only saline solution.

Acute toxicity, rats = conditions: rat, in vivo, printed 'for oral administration', then first of 'respective administration'
Description: The acute toxicity was determined for oral and intraperitoneal administration with mice and rats (6 mice and 2 rats in one dose group), and the LD50 value, i.e., the single application dose killing 50% of the test animals, was estimated.

rats = assay: Subacute toxicity, daily doses for 32 consecutive days; type: in vivo; conditions: 3.1, 12.5, 50 and 200 mg./kg. daily, oral or i.p., 32 days
histidine decarboxylase [5] = conditions: cited from earlier work
animals [6] = conditions: cited from earlier work
animals [7] = conditions: cited from earlier work; remark: listed apart in the source
[8] = 2 hrs. after TTG, control (no drug) 1.2
[9] = 4 hrs. after TTG, control (no drug) 1.6
[10] = Group 1 (100 mg./kg. 19 h, 50 mg./kg. 9, 4, 1 h before), mouse 1, control 5
[11] = Group 2 (100 mg./kg. 9 h, 50 mg./kg. 4, 1 h before), mouse 1, control 5

Structure (SMILES) | Analgesic Activity: Stretching Count (20 minutes) ([2]; 50 mg./kg. i.p.) | Analgesic Activity: Stretching Count (20 minutes) ([2]; 200 mg./kg. i.p.) | Antipyretic Activity: Elevation of Body Temperature [3, 8] | Antipyretic Activity: Elevation of Body Temperature [3, 9] | Symptoms emerged, time after challenge [4, 10] | Died, time after challenge ([4]; Group 1, mouse 1, control 15) | Symptoms emerged, time after challenge ([4]; Group 1, mouse 2, control 3) | Symptoms emerged, time after challenge [4, 11] | Symptoms emerged, time after challenge ([4]; Group 2, mouse 2, control 3) | Died, time after challenge ([4]; Group 2, mouse 2, control 20) | Symptoms emerged, time after challenge ([4]; Group 2, mouse 3, control 7) | Died, time after challenge ([4]; Group 2, mouse 4, control 20) | disease symptoms or abnormality attributable to drug dosing (rats) | weight gain (rats) | other results
O=C(Nc1cc(Cl)c(O)c(Cl)c1)c1ccccc1O [Compound 1] | 11 | 4 | 0.6 °C | 0.5 °C | 15 min | 30 min | 20 min | 35 min | 10 min | 30 min | 25 min | 40 min | no particular disease symptoms or abnornality attributable to the drug dosing was noted | the weight gain was normal | IC50 (histidine decarboxylase [1]): 22 nM; Died, time after challenge ([4]; Group 1, mouse 2, control 20): 35 min; Symptoms emerged, time after challenge ([4]; Group 2, mouse 4, control 3): 20 min; LD50 (Acute toxicity, rats): 2200 mg/kg
CCC(=O)Oc1ccccc1C(=O)Nc1cc(Cl)c(OC(=O)CC)c(Cl)c1 [Compound 33] | 12 | 5 | 0.6 °C | 0.5 °C | 10 min | 30 min | 25 min | 20 min | 20 min | 45 min | 30 min | 40 min | no particular disease symptoms or abnornality attributable to the drug dosing was noted | the weight gain was normal | IC50 (histidine decarboxylase [1]; pH 6.8, two hours at 37° C., read-out: Histidine Decarboxylase Inhibition ID50): 39 nM; Symptoms emerged, time after challenge ([4]; Group 1, mouse 3, control 7): 30 min; Died, time after challenge ([4]; Group 2, mouse 1, control 15): 40 min
Cc1cc(OC(=O)c2c(C)cc(O)cc2O)cc(O)c1C(=O)O [Lecanoric acid, 4'-carboxy-2,3'-dimethyl-4,6,5'-trihydroxyphenylbenzoate] | – | – | – | – | – | – | – | – | – | – | – | – | – | – | inhibitory activity to histidine decarboxylase (in words) (histidine decarboxylase [5]): strong inhibitory activity; anti-inflammatory activity (in words) (animals [6]): only weak anti-inflammatory activity; hydrolysis in animals (animals [7]): hydrolysed in animals
